According to patent publication US20070075630A1, “Organic compositions” (priority 2005, published 2007):

Test: solubility of organic semiconductor in solvent (Table 1, formulation and processing)
Assay type: physicochemical
Conditions: solvent THF

| SMILES | solubility in THF |
| --- | --- |
| CCCCC(C)COc1ccc(-c2ccc(-c3ccc(-c4ccc(OCC(C)CCCC)cc4)s3)s2)cc1 (stereo not drawn) [6(2Me)-O-PTTP-O- 6(2Me), 5,5′-bis(4-(2-methylhexyloxy)phenyl)-2,2′-bithiophene] | sufficiently soluble in THF (about 61,000 ppm) DSC: mp = 197 °C |
| CC(C)CCCOc1ccc(-c2ccc(-c3ccc(-c4ccc(OCCCC(C)C)cc4)s3)s2)cc1 [5(4Me)-O-PTTP-O-5(4Me), 5,5′-bis(4-(4-methylpentyloxy)phenyl)-2,2′-bithiophene] | solubility in THF about 5400 ppm. DSC: mp =250° C., smaller |
| CCCCCC(C)Oc1ccc(-c2ccc(-c3ccc(-c4ccc(OC(C)CCCCC)cc4)s3)s2)cc1 (stereo not drawn) [6(1Me)-O-PTTP-O- 6(1Me), 5,5′bis(4-(1-methylhexyloxy)phenyl)-2,2′-bithiophene] | ~89,000 ppm |
| CC(C)CCCC(C)CCOc1ccc(-c2ccc(-c3ccc(-c4ccc(OCCC(C)CCCC(C)C)cc4)s3)s2)cc1 (stereo not drawn) [8(3,7Me)-O-PTTP-O- 8(3,7Me), 5,5′-bis(4-(3,7-dimethyloctyloxy)phenyl)-2,2′-bithiophene] | solubility in THF about 12,000 ppm DCS: mp = 192° C., |
| CCCCCC(CC)Oc1ccc(-c2ccc(-c3ccc(-c4ccc(OC(CC)CCCCC)cc4)s3)s2)cc1 (stereo not drawn) [6(1Et)-O-PTTP-O- 6(1Et), 5,5═-Bis-[4-(1-ethyl-hexyloxy)-phenyl]-[2,2′]bithiophenyl] | Well soluble in THF (about 330,000 ppm) DSC: mp = 97-102° C., (broad transition) |
| C=CC(C=C)OC(=O)CCCCCOc1ccc(-c2ccc(-c3ccc(-c4ccc(OCCCCCC(=O)OC(C=C)C=C)cc4)s3)s2)cc1 [6-[4-(5′-[5-(1-Vinyl-allyloxycarbonyl)-pentyloxy]-phenyl}-[2,2′]bithiophenyl-5-yl)-phenoxy]-hexanoic acid 1-vinyl-allyl ester] | well soluble in THF (131,000 ppm) |
| CC(COc1ccc(-c2ccc(-c3ccc(-c4ccc(OCC(C)COC5CCCCO5)cc4)s3)s2)cc1)COC1CCCCO1 (stereo not drawn) [3(3THPO,2Me)-O-PTTP- O-3(THPO,2Me), 5,5′-Bis-[4-(2-methyl-propoxy-tetrahydro-pyran)-phenoxy]-[2,2′]bithiophenyl] | Well soluble in THF (about 75,000 ppm) |
| CC(CO)COc1ccc(-c2ccc(-c3ccc(-c4ccc(OCC(C)CO)cc4)s3)s2)cc1 (stereo not drawn) [3(3OH,2Me)-O-PTTP- O-3(3OH,2Me), 3-(4-{5′-[4-(3-Hydroxy-2-methyl-propoxy)-phenyl]-[2,2′]bithiophenyl-5-yl}-phenoxy)-2-methyl-propan-1-ol] | Low solubility in THF (600 ppm) |
| CCCCCCOc1ccc(-c2ccc(-c3ccc(-c4ccc(OCCCCCC)cc4)s3)s2)cc1 [6-O-PTTP-O-6, 5,5′-bis(4-hexyloxyphenyl)-2,2′-bithiophene] | solubility in THF about 600 ppm, lowest value by far. Differential scanning calorimetry |
| CC(C)(C)[Si](OCCCCCCOc1ccc(-c2ccc(-c3ccc(-c4ccc(OCCCCCCO[Si](c5ccccc5)(c5ccccc5)C(C)(C)C)cc4)s3)s2)cc1)(c1ccccc1)c1ccccc1 [6(6TBDPSO)-O- PTTP-O- 6(6TBDPSO), 5,5′-Bis-{4-[6-(tert-butyl-diphenyl-silanyloxy)-hexyloxy]-phenyl}-[2,2′]bithiophenyl] | # THF (about 310,000 ppm) |
| CCC(CC)COc1ccc(-c2ccc(-c3ccc(-c4ccc(OCC(CC)CC)cc4)s3)s2)cc1 [4(2Et)-O-PTTP-O- 4(2Et), 5,5′-bis(4-(2-ethylbutyloxy)phenyl)-2,2′-bithiophene] | solubility in THF about 4,900 ppm |

Same assay, conditions: solvent not stated

| solubility (in words, compared with 6PTTP6) | SMILES |
| --- | --- |
| Solubility like 6PTTP6 | CCCOCCc1ccc(-c2ccc(-c3ccc(-c4ccc(CCOCCC)cc4)s3)s2)cc1 [3O2PTTP2O3, 5,5═-Bis(4-(propxyethyl)phenyl)-2,2′-bithiophene] |
